Columns and labels:
[1] = tested on: PDAC monoculture and PDAC/CAF co-culture; test: Combinatorial drug treatment, percent killing and Bliss synergy; assay type: cell-based, human
Source text: FIGS. 9A-E. Combinational drug treatment (Oxo+FFX) in PDAC alone or PDAC+CAF coculture. […] (b) Combination drug treatments of PDAC 3 and PDAC 6, as monoculture or co-culture with CAF1. Values indicate percent killing, as compared to untreated cells, such that 0 indicates no killing and 100 indicates all cells killed. (c) Bliss plots of synergistic activity between 5z-7-oxozeaenol and FFX, where positive values represent synergistic activity, negative values represent anti-synergistic activity, and 0 represents no synergy. Synergy data are based on values from 8B. (d) Combination drug treatments of PDAC 8 and PDAC 9, as monoculture or co-culture with CAF1. Values indicate percent killing, as compared to untreated cells, such that 0 indicates no killing and 100 indicates all cells killed. (e) Combination drug treatments of CAF1 monoculture. Values indicate percent killing, as compared to untreated cells, such that 0 indicates no killing and 100 indicates all cells killed. FIG. 10. Combinational drug treatment (Losartan+FFX) in PDAC alone or PDAC+CAF coculture. Combination drug treatments of PDAC 3 and PDAC 6, as monoculture or co-culture with CAF1. Values indicate percent killing, as compared to untreated cells, such that 0 indicates no killing and 100 indicates all cells killed. In order to evaluate whether oxo could synergize with FOLFIRINOX, we performed combinatorial drug treatment in PDAC monoculture and PDAC/CAF co-culture settings (FIG. 9A). […] In order to assess for synergistic activity between Oxo and FOLFIRINOX, we used the Bliss independence model to analyze our drug combination experiments (Bliss, 1939; Yadav et al., 2015).

[2] = tested on: CAF1 monoculture; test: Dose response and combination treatment in CAF1 monoculture; assay type: cell-based; conditions: combination with FFX
Source text: FIGS. 7A-C. […] FIGS. 8A-C. […] Values indicate percent killing, as compared to untreated cells, such that 0 indicates no killing and 100 indicates all cells killed. (e) Combination drug treatments of CAF1 monoculture. Values indicate percent killing, as compared to untreated cells, such that 0 indicates no killing and 100 indicates all cells killed. […] In order to evaluate whether oxo could synergize with FOLFIRINOX, we performed combinatorial drug treatment in PDAC monoculture and PDAC/CAF co-culture settings (FIG. 9A). […] In order to assess for synergistic activity between Oxo and FOLFIRINOX, we used the Bliss independence model to analyze our drug combination experiments (Bliss, 1939; Yadav et al., 2015).

[3] = tested on: QM and E PDAC monoculture and co-culture with CAF1; test: FFX dose response in PDAC monoculture and co-culture with CAF1; assay type: cell-based, human; conditions: both monocultures and CAF co-culture conditions
Source text: (a) Dose response curves in QM and E PDAC monoculture and co-culture with CAF1, as well as CAF1 monoculture, following FFX treatment. (b) FFX IC50 for QM and E PDAC monoculture versus co-culture with CAF1. […] (a) Dose response curves in QM and E PDAC monoculture following combination 5z-7-oxozeaenol and FFX treatment. (b) Dose response curves in QM and E PDAC co-culture with CAF1 following combination 5z-7-oxozeaenol and FFX treatment. (c) Dose response curves in CAF1 monoculture following combination 5z-7-oxozeaenol and FFX treatment. […] (a) Dose response curves in QM and E PDAC monoculture following combination losartan and FFX treatment. (b) Dose response curves in QM and E PDAC co-culture with CAF1 following combination losartan and FFX treatment. (c) Dose response curves in CAF1 monoculture following combination losartan and FFX treatment. PDAC cells were co-cultured with fibroblasts (CAF) to more closely mimic the tumor microenvironment.

[4] = tested on: PDAC cell lines; test: 2D (Boyden chamber) and 3D (type I collagen embedded) invasion assays; assay type: cell-based, human; conditions: Oxo for 3 days
Protocol: (§1) FIGS. 3A-D. Graphs showing relative cell growth of (a) QM and (b) E PDACs in 3D condition upon FFX and/or Oxo treatment with indicated concentrations for 2 weeks. Cell viability was measured using CellTiter Glo assay. Images showing growing PDACs (in 3D) under these conditions. (c) Graphs with results for clonogenic assay upon FFX and/or Oxo treatment with indicated concentrations for 2 weeks. Then, cells were fixed with 3.7% PFA and stained with crystal violet. Relative colony area was measured using Image J. (d) Images with 2D (Boyden chamber) and 3D invasion assays (type I collagen embedded) of PDAC cell lines incubated with Oxo for 3 days.

[5] = tested on: patient-derived PDAC cell lines; test: RNA-ISH and total RNA sequencing of E/QM (EMT) signatures after Oxo treatment; assay type: cell-based, human; conditions: for E gene expression (RNA-ISH and RNA sequencing) / QM gene expression (RNA-ISH and RNA sequencing): Oxo 10 μM, 10 days, across PDAC cell lines
Protocol: (c) PDAC3, 9 and 6 cells were treated with Oxo (10 μM) for 10 days in tumorsphere (3D) condition.

[6] = tested on: QM and E PDACs; test: Relative cell growth in 3D condition upon FFX and/or Oxo treatment (CellTiter Glo); assay type: cell-based, human; conditions: for killing of / sensitivity to FFX of QM cells when Oxo is added to FOLFIRINOX: QM cells compared to E cells, 3D, 2 weeks
Protocol: Cell viability was measured using CellTiter Glo assay. […] Then, cells were fixed with 3.7% PFA and stained with crystal violet. Relative colony area was measured using Image J. (d) Images with 2D (Boyden chamber) and 3D invasion assays (type I collagen embedded) of PDAC cell lines incubated with Oxo for 3 days.

[7] = tested on: PDAC cell lines; test: Clonogenic assay (crystal violet, colony area by Image J); assay type: cell-based, human; conditions: 2 weeks
Protocol: as §1
FIGS. 4A-F. Effects of TAK1 Knockout in PDAC EMT Plasticity. (a) Western blots showing complete ablation of TAK1 across PDAC cell lines. (b) Heatmaps based on RNA-ISH and total RNA-seq showing EMT signatures in TAK1 KO PDAC6 and PDAC9 cell lines. (c) Clonogenic assays for WT (non-targeting single guide RNA, sgRNA) and TAK1 KO cell lines treated with FFX for 2 weeks. Colony area was determined by Image J. (d) Images with 2D invasion assay (Boyden chamber) in TAK1 KO PDAC cell lines. (e) Graphs confirming functional ablation of TAK1 represented by TAK1 downstream activity of p-MEK1/2 and p-ERK1/2 under TGFbeta stimulation. (f) Graphs with results for clonogenic assay upon FFX and/or Takinib treatment with indicated concentrations for 2 weeks.

[8] = tested on: MEK; conditions: cited from earlier work
[9] = target: T1, TAK1 (Homo sapiens, UniProt O43318); conditions: cited from earlier work
T1 sequence (O43318 1-606): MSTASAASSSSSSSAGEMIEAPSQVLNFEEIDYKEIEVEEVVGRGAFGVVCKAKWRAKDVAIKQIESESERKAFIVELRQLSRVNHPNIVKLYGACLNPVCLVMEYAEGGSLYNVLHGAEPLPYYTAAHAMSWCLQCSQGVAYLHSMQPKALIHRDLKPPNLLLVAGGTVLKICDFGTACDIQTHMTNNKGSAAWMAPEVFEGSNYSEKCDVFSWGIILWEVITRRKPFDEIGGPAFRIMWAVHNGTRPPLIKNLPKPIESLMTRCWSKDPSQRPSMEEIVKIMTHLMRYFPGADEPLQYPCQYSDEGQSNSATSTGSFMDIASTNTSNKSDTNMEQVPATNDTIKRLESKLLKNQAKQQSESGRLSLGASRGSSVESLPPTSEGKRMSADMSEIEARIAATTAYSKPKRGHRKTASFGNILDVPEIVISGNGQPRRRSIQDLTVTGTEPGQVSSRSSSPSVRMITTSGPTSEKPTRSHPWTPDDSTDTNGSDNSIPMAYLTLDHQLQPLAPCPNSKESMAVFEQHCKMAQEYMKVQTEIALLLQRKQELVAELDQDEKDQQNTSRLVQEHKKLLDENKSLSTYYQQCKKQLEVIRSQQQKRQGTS
T1 sequence (Q15750 1-504 partner): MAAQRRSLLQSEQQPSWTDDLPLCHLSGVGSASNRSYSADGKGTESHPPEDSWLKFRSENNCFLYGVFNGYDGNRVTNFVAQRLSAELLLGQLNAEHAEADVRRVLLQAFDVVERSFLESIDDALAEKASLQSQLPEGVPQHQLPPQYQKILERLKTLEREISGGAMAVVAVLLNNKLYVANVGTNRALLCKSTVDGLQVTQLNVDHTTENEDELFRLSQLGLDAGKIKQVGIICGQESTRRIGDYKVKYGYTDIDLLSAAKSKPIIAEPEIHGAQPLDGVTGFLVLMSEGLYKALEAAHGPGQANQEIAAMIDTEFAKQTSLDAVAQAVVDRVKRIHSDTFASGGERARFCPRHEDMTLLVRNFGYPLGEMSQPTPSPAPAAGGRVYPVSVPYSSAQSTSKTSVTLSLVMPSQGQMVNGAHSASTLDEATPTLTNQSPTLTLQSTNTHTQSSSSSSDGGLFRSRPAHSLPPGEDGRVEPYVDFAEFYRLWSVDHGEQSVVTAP

[10] = target: T2, FLT3 (Homo sapiens, UniProt P36888); conditions: cited from earlier work
T2 sequence (P36888 27-993): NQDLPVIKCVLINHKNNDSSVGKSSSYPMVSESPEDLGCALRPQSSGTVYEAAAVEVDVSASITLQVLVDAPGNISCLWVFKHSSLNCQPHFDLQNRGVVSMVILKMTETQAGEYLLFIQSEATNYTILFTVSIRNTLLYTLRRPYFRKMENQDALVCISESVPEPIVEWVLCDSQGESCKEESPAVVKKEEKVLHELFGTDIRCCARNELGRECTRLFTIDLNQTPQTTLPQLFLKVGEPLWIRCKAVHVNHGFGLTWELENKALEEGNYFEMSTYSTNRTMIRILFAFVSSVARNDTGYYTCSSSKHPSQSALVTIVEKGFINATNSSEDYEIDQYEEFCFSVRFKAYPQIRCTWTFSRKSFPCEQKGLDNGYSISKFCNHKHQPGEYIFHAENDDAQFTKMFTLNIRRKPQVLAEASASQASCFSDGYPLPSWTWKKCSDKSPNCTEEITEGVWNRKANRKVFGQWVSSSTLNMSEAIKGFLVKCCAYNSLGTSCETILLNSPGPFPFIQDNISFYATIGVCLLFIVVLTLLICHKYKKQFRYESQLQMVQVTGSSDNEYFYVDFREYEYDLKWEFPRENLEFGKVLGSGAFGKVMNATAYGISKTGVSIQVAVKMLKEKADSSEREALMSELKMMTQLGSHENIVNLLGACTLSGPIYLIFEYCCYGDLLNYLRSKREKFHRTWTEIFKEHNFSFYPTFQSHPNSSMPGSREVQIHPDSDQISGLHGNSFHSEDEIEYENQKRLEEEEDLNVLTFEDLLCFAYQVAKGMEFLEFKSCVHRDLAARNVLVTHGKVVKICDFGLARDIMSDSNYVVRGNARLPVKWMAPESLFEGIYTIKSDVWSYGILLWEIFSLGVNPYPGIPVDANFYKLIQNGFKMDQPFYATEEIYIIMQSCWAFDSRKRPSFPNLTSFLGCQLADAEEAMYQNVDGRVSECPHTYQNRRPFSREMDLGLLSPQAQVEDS

## CCCCc1nc(Cl)c(CO)n1Cc1ccc(-c2ccccc2-c2nn[nH]n2)cc1 [Losartan, reference compound]
[1]; PDAC 3 and PDAC 6, monoculture or co-culture with CAF1
  additional killing when combined with FOLFIRINOX: did not demonstrate any additional killing
[1]; low FOLFIRINOX settings
  cell growth when combined with FOLFIRINOX: increased cell growth
[2]
  effect on CAFs alone: no effect
[3]
  effect on PDAC cell response to FOLFIRINOX: did not affect

## COc1cc(O)c2c(c1)/C=C/C[C@H](O)[C@H](O)C(=O)/C=C\C[C@H](C)OC2=O [Oxo, (5z)-7-oxozeaenol]
[4]
  invasiveness / invasion: significant reduction
  migratory abilities / migration: significant reduction
[4]; listed as (5z)-7-Oxozeaenol
  invasiveness / invasion: reduced
  migratory abilities / migration: reduced
[5]; listed as (5z)-7-Oxozeaenol
  E gene expression (RNA-ISH and RNA sequencing): enrichment
  QM gene expression (RNA-ISH and RNA sequencing): decreased
[5]; listed as oxo
  E gene expression (RNA-ISH and RNA sequencing): increased
  QM gene expression (RNA-ISH and RNA sequencing): significantly suppressed
[5]; PDAC 3, 6, and 8
  mesenchymal gene expression (Hallmark EMT geneset): significantly decreased
[5]; PDAC 9
  mesenchymal gene expression (Hallmark EMT geneset): numerically decreased
[5]; all lines tested, with vs without Oxo
  global mesenchymal gene expression (200 genes of Hallmark EMT geneset): numerically lower
[6]; E cells BxPC3 and DAN-G
  sensitivity to Oxo as a single agent: sensitive
[6]
  killing of / sensitivity to FFX of QM cells when Oxo is added to FOLFIRINOX: synergistic increased killing
[6]; listed as (5z)-7-Oxozeaenol
  killing of / sensitivity to FFX of QM cells when Oxo is added to FOLFIRINOX: synergistically increased
[7]; Oxo-treated PDACs
  colony formation: significant reduction
[8]
  inhibition of MEK: inhibit
[9]
  inhibition of TAK1: inhibit
[1]; increasing doses, 3 days, monoculture and co-culture
  cell killing (cell viability): dose-dependent cell killing
[10]
  inhibition of FLT3: inhibit
[2]
  effect on CAFs alone: little effect
[3]
  effect on PDAC cell response to FOLFIRINOX: sensitized

## CCCn1/c(=N/C(=O)c2cccc(C(N)=O)c2)[nH]c2ccccc21 [Takinib, reference compound]
[7]; QM PDAC cells, FFX and/or Takinib
  sensitization of FOLFIRINOX response (clonogenic assay): not able to sensitize
[9]
  inhibition of TAK1: selective inhibitor

Reference: US20250319061A1, “COMBINATION TREATMENT FOR ADENOCARCINOMA” (The General Hospital Corporation, priority 2022, published 2025)
